Results: patent US12319681B2, “Tripartite androgen receptor eliminators, methods and uses thereof” (SPG Therapeutics, Inc., priority 2017, dated 2025)
Where two headings read alike, the source gives them in different places.

What was measured:
[1] = Solubility screening tests in 8 solvent systems; type: physicochemical
Experimental: Solubility screening tests were performed in 8 solvent systems: (1) Transcutol: Ethanol: Isopropyl myristate (IPM) 2:3:5 (v:v); (2) Transcutol: Ethanol 3:7 (v:v); (3) Ethanol: Propylene Glycol 1:1 (v:v); (4) Ethanol:H2O 7:3 (v:v); (5) IPM; (6) Ethanol:Tween 80: Cetyl Alcohol 90:5:5 (w:w); (7) CCT: Tween 80: Cetyl Alcohol 90:5:5 (w:w); and (8) CCT: Isopropanol 1:1 (v: v). […] One objective was to identify solvent systems for solution formulation at targeted API concentration of 1% by weight. Another objective was to identify solvents that are potentially good penetration enhancers and yet clinically viable. Since cetyl alcohol is solid, the solvent systems with them were prepared in weight ratios.

androgen receptor (AR) [2] = target: T1, androgen receptor (AR) (Homo sapiens, UniProt P10275); assay: Keratinocyte AR Reporter Gene Assay, 24 and 72 hours continuous exposure (Example 12); type: cell-based; details: keratinocytes
T1 construct: human keratinocytes transfected with an AR luciferase reporter gene; endogenous in cells; host or cells: normal human adult primary epidermal keratinocytes (ATCC PCS-200-011)
T1 sequence (P10275 1-920): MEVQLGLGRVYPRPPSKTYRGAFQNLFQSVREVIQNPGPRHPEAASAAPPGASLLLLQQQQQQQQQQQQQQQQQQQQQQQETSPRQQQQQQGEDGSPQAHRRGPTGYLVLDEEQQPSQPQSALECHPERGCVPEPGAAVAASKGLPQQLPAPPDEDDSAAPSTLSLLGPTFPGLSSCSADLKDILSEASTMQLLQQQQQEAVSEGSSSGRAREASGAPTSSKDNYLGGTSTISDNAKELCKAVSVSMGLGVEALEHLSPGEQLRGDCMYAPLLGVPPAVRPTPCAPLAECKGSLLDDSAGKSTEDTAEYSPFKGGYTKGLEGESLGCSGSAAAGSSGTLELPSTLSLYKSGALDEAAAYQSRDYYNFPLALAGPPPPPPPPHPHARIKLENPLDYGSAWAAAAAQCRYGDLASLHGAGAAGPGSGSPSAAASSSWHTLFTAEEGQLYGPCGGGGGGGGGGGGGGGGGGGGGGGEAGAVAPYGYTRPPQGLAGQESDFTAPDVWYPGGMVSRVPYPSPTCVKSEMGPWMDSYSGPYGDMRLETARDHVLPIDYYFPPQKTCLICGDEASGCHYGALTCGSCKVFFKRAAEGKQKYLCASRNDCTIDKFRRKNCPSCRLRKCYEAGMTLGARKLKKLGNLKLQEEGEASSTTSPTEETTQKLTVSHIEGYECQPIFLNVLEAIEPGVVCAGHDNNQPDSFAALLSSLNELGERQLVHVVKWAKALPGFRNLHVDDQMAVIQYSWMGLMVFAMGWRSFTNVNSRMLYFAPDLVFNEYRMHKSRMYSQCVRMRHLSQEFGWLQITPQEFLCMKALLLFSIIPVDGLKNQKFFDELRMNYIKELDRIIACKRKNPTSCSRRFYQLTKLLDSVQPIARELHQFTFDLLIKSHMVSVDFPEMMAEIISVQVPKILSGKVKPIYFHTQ
Experimental: (§1) To assess ARE-mediated inhibition, an AR luciferase assay was performed. After washing cells with 1×PBS, 20 μL lysis buffer (25 mM Tris/phosphate, 4 mM EGTA, 1% Triton, 10% glycerol, 2 mM DTT) was added per well, incubated for 5 minutes with gentle shaking and store at −80° C. On the day of assay, the plates were thawed to ambient temperature and 80 μL of assay buffer (25 mM glycylglycine, 15 mM MgCl2. 5 mM ATP, 0.1 mg/ml BSA) was added to each well. Plates are then processed on a microplate reader (POLARstar Omega) by injecting 100 μL of 1 mM D-luciferin per well, followed by chemiluminescence measurement of 3 seconds at onset of injection. Luciferase activity was determined, measured, and normalized to Relative Light Units (RLU). AR reporter gene activity reduction values were calculated as follows: AR reporter gene activity=1−(average signal (treatment group)/average signal (treatment group without drug).
This example illustrates how to determine the inhibitory activity of an ARE disclosed herein using a cell-based androgen receptor transcriptional reporter assay using primary human keratinocytes.
Results were analyzed for IC50 and IC90 values in GraphPad Prism using a four-parameter logistic curve equation. Bottom constraints were set to 1 (level of uninduced control).

androgen receptor (AR) [3] = target: T2, androgen receptor (AR) (Homo sapiens, UniProt P10275); assay: MDA-kb2 AR luciferase reporter gene assay (1.0 nM DHT); type: cell-based; details: MDA-kb2, 24 h, read-out: Gene Activity Reduction
Experimental: This example illustrates how to determine the inhibitory activity of an ARE disclosed herein using a cell-based androgen receptor transcriptional reporter assay using an engineered cell line.
Each ARE tested was prepared in DMSO. […] Ethanol concentrations in media never exceeded 0.1%.
as §1

androgen receptor (AR) [4] = target: T2, androgen receptor (AR); assay: MDA-kb2 Assay with 0.1 nM DHT (Example 13); type: cell-based
Experimental: as §1
To determine efficacy of a compound, a MDA-kb2 assay was performed as described in Example 10. The cells were treated with compounds for 24 hours prior to measurements of reporter gene activity. […] AR luciferase assay results were analyzed using GraphPad Prism using a four-parameter logistic curve equation. Bottom constraints were set at 1 (level of uninduced control.)

[5] = test system: normal Human Adult Primary Epidermal Keratinocyte cell line; details: 72 h
Experimental: (§2) For the Keratinocyte assay, normal Human Adult Primary Epidermal Keratinocyte cell line (ATCC PCS-200-011) was maintained in EPIUFE® Medium, with 60 μM calcium (Thermo MEPISOOCA) supplemented with Human Keratinocyte Growth Supplement, 100 U/mL penicillin, and 100 μg/mL streptomycin at 37° C. with 5% C02. For experiments, cells were seeded at 70% confluence per well in 100 μL of medium in 96-well plates. Reverse transfection was done on the cells using Lipofectamine 3000 (Life Technologies) with plasmids according to manufacturer's instructions. Briefly, 0.3 μL transfection reagent per 100 ng DNA were incubated with P3000 reagent and Opti-Mem prior to addition of cells. After 16 hours, medium was removed and replaced with dosing medium.
(§3) Each ARE tested was prepared in DMSO. Dosing medium was prepared at the time of treatment by serial diluting stock solution into medium. Ethanol concentrations in media never exceeded 0.1%. […] Negative control wells contained 100 L medium/well with 1 μL of ethanol/mL of medium and an appropriate amount of DMSO. […] Cells were incubated 72 hours at 37° C. without CO2.

[6] = test system: normal Human Adult Primary Epidermal Keratinocyte cell line; details: 24 h
Experimental: For the Keratinocyte assay, normal Human Adult Primary Epidermal Keratinocyte cell line (ATCC PCS-200-011) was maintained in EPIUFE® Medium, with 60 μM calcium (Thermo MEPISOOCA) supplemented with Human Keratinocyte Growth Supplement, 100 U/mL penicillin, and 100 μg/mL streptomycin at 37° C. with 5% C02. For experiments, cells were seeded at 70% confluence per well in 100 μL of medium in 96-well plates. […] After 16 hours, medium was removed and replaced with dosing medium.
A 5α-Androstan-17β-ol-3-one (DHT) stock solution was prepared at 1,000× in ethanol. […] Dosing medium was prepared at the time of treatment by serial diluting stock solution into medium. Ethanol concentrations in media never exceeded 0.1%. […] Negative control wells contained 100 μL medium/well with 1 μL of ethanol/mL of medium and an appropriate amount of DMSO. Each plate also contained 1.0 nM DHT with an ARE or without an ARE as a positive control. Cells were incubated 24 hours at 37° C. without CO2.
To assess for cell viability, cells were first visually examined under a phase-contrast microscope to record cell confluence, morphological changes, and presence of drug crystallization as well as to observe signs of cytotoxity such as, e.g., detachment, vacuolization, membrane degradation, or lack of phase brightness. After microscopic inspection, a Trypan Blue exclusion assay was performed to assess cell viability and cell number for each well. Each well was washed with 0.5 mL volume of PBS. 30 µL of Trypan Blue was added to each well for 5-10 minutes. Total cell number and total viable cell number will be counted from 1 number of fields per well, in triplicate.

in vitro = details: human
Experimental: as §2, §3

Compound: CC12CCC(=O)C=C1C[C@@H](SC(=O)CC13CC4CC(CC(C4)C1)C3)C1C2CCC2(C)C1CC[C@@]21CCC(=O)O1 (stereo partly shown) [SPG-003]
- solubility ([1]; solvent system (1) Transcutol: Ethanol: Isopropyl myristate (IPM) 2:3:5 (v:v), target 1% by weight): good solubility
- solubility ([1]; solvent system (2) Transcutol: Ethanol 3:7 (v:v), target 1% by weight): good solubility
- solubility ([1]; solvent system (3) Ethanol: Propylene Glycol 1:1 (v:v), after extensive sonication): not soluble
- solubility ([1]; solvent system (4) Ethanol:H2O 7:3 (v:v), after extensive sonication): not soluble
- solubility ([1]; solvent system (5) IPM, after extensive sonication): not soluble
- solubility ([1]; solvent system (6) Ethanol:Tween 80: Cetyl Alcohol 90:5:5 (w:w)): good solubility
- solubility ([1]; solvent system (7) CCT: Tween 80: Cetyl Alcohol 90:5:5 (w:w), after extensive sonication): not soluble
- solubility ([1]; solvent system (8) CCT: Isopropanol 1:1 (v: v)): good solubility
- IC50 (androgen receptor (AR) [2]; 24-hr Treatment): 3.68 µM
- IC90 (androgen receptor (AR) [2]; 24-hr Treatment): 6.96 µM
- Maximum Inhibition (androgen receptor (AR) [2]; 24-hr Treatment): 91%
- IC50 (androgen receptor (AR) [2]; 24-hr treatment): 3.7 µM
- IC90 (androgen receptor (AR) [2]; 24-hr treatment): 7 µM
- IC50 (androgen receptor (AR) [2]; 72-hour treatment): 2.5 µM
- IC90 (androgen receptor (AR) [2]; 72-hour treatment): 5.7 µM
- IC50 (androgen receptor (AR) [2]; 72-hr Treatment): 2.57 µM
- IC90 (androgen receptor (AR) [2]; 72-hr Treatment): 5.68 µM
- Maximum Inhibition (androgen receptor (AR) [2]; 72-hr Treatment): 93%
- inhibition of AR reporter gene activity (in words) (androgen receptor (AR) [2]; 24 and 72 hours): dose-dependent inhibition
- inhibition at 0.1 µM (androgen receptor (AR) [3]): 8%
- inhibition at 1 µM (androgen receptor (AR) [3]): 20%
- inhibition at 3 µM (androgen receptor (AR) [3]): 40%
- inhibition at 10 µM (androgen receptor (AR) [3]): 90%
- IC50 (androgen receptor (AR) [4]; MDA-kb2, 0.1 nM DHT, 24 hours): 0.789 µM
- IC90 (androgen receptor (AR) [4]; MDA-kb2, 0.1 nM DHT, 24 hours): 2.71 µM
- Maximum Inhibition (androgen receptor (AR) [4]; MDA-kb2, 0.1 nM DHT, 24 hours): 95%
- dose-dependent inhibition of AR reporter gene activity (in words) (androgen receptor (AR) [4]; MDA-kb2, reduced DHT levels (0.1 nM)): dose-dependent inhibition
- Cell Viability ([5]; 0.62 μM): 92.16 ± 1.30
- Cell Viability ([5]; 1.85 μM): 73.46 ± 1.11
- Cell Viability ([5]; 5.56 μM): 66.12 ± 3.09
- Cell Viability ([5]; 16.67 μM): 55.11 ± 0.16
- Cell Viability ([5]; 50 μM): 38.67 ± 2.25
- Cell Viability ([6]; 0.1 μM): 93%
- Cell Viability ([6]; 1 μM): 93%
- Cell Viability ([6]; 3 μM): 94%
- Cell Viability ([6]; 10 μM): 93%
- IC50 at 72 h (in vitro): ~50 µM
